Among the data in US8933024B2, “Azolopyridin-3-one derivatives as inhibitors of lipases and phospholipases” (Sanofi, priority 2010, dated 2015) are IC50 values, retold here.

In the assay the target is endothelial lipase (EL) (Homo sapiens (Human), UniProt Q9Y5X9). The assay is described as follows: Test for inhibition of EL (assay for EL activity). The note with it: phospholipase-specific Bodipy phosphocholine substrate; 37° C. for 90 minutes; enzyme from conditioned medium of recombinant cell lines (CHO, HEK293). The class given is biochemical. An excerpt:
Test for inhibition of EL:
EL is released as a secretory protein by recombinant cell lines (CHO, HEK293) in high concentration into cell culture medium (conditioned medium). This was used as an enzyme solution after concentration.
For characterization of the enzymatic activity of endothelial lipase and the effect of inhibitors, the phospholipase-specific substrate 1,2-bis(4,4-difluoro-5,7-dimethyl-4-bora-3a,4a-diaza-s-indacene-3-undecanoyl)-sn-glycero-3-phosphocholine (manufacturer: Molecular Probes) was used. Hydrolysis of the A1 ester bond of this phospholipid by the enzyme releases the fluorescent dye Bodipy, which can be detected by measuring the fluorescence after separation by thin-layer chromatography on an HPTLC plate (silica gel 60, Merck) or directly in the reaction vessel. To prepare the substrate solution, 100 μg of 1,2-bis(4,4-difluoro-5,7-dimethyl-4-bora-3a,4a-diaza-s-indacene-3-undecanoyl)-sn-glycero-3-phosphocholine (manufacturer: Molecular Probes) were dissolved in 100 μl of DMSO and taken up in 2.4 mg of tripalmitin (Sigma) in 393 μl of chloroform which contained 20 mg/ml DOP—choline (1,2-dioleoyl-sn-glycero-3-phosphocholine). 39.3 μl of this lipid mixture were transferred into a fresh reaction vessel and the solvent was evaporated off. The lipid mixture was dissolved by sonicating twice in 4 ml of 200 mM TRIS-HCl, 150 mM sodium chloride, pH=7.4. The subsequent enzyme reaction was effected at 37° C. for 90 minutes. For this purpose, 20 μl of the substrate solution were incubated with 2 μl of inhibitor of appropriate concentration (dissolved in 10% DMSO; 10% DMSO solution was used as a control) and 2 μl of enzyme solution (conditioned medium). Thereafter, 4 μl of the test mixture were applied to an HPTLC plate (silica gel 60, Merck) and the fluorescent dye released was separated for detection with an eluent (diethyl ether:petroleum:acetic acid [78:22:1]). After the eluent had been evaporated off, the plate was read in a fluorescence scanner.

Sequence of endothelial lipase (EL) (Q9Y5X9 21-500): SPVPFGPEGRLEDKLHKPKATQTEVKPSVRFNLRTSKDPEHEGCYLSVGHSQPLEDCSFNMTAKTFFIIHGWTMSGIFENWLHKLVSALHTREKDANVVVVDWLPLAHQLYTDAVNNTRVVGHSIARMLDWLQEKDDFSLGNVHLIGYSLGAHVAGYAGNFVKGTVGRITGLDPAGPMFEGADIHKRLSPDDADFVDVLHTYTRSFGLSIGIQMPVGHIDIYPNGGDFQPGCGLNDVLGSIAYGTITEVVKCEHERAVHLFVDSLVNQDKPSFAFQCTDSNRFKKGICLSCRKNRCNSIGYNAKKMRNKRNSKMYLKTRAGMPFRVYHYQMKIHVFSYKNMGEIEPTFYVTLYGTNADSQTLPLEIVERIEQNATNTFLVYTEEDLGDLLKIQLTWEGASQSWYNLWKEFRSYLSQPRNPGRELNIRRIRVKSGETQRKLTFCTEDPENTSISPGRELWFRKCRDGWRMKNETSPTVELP

For `COc1cc(CNC(=O)n2sc3ncccc3c2=O)cc(OC)c1OC` [Example 3, 3-Oxo-3H-isothiazolo[5,4-b]pyridine-2-carboxylic acid 3,4,5-trimethoxy-benzylamide], the IC50 came to 926 nM.
To `COc1cc(C(C)NC(=O)n2sc3ncccc3c2=O)cc(OC)c1OC` (stereo not drawn) [Example 4, 3-Oxo-3H-isothiazolo[5,4-b]pyridine-2-carboxylic acid [1-(3,4,5-trimeth-oxy-phenyl)-ethyl]-amide] belongs 40 nM; to `CC(NC(=O)n1sc2ncccc2c1=O)c1ccc2c(c1)OCCO2` (stereo not drawn) [Example 5, 3-Oxo-3H-isothiazolo[5,4-b]pyridine-2-carboxylic acid [1-(2,3-dihydro-benzo[1,4]dioxin-6-yl)-ethyl]-amide], 200 nM; to `O=C(NCc1ccccc1)n1sc2ncccc2c1=O` [Example 18, 3-Oxo-3H-isothiazolo[5,4-b]pyridine-2-carboxylic acid benzylamide], 69 nM.
The same measure for `COc1ccc(OC)c(CNC(=O)n2sc3ncccc3c2=O)c1` [Example 28, 3-Oxo-3H-isothiazolo[5,4-b]pyridine-2-carboxylic acid 2,5-dimethoxy-benzylamide]: 107 nM.
To `Cc1cc(C)c(CNC(=O)n2sc3ncccc3c2=O)c(C)c1` [Example 29, 3-Oxo-3H-isothiazolo[5,4-b]pyridine-2-carboxylic acid 2,4,6-trimethyl-benzylamide] belongs 4290 nM; to `COc1ccc(C(C)NC(=O)n2sc3ncccc3c2=O)cc1OC` (stereo not drawn) [Example 37, 3-Oxo-3H-isothiazolo[5,4-b]pyridine-2-carboxylic acid [1-(3,4-dimethoxy-phenyl)-ethyl]-amide], 148 nM; to `COc1cccc(CNC(=O)n2sc3ncccc3c2=O)c1` [Example 38, 3-Oxo-3H-isothiazolo[5,4-b]pyridine-2-carboxylic acid 3-methoxy-benzyl-amide], 182 nM.
With `Cc1cccc(C)c1CNC(=O)n1sc2ncccc2c1=O` [Example 39, 3-Oxo-3H-isothiazolo[5,4-b]pyridine-2-carboxylic acid 2,6-dimethyl-benz-ylamide], the IC50 was 120 nM.
The same measure for `CC(C)C(NC(=O)n1sc2ncccc2c1=O)c1ccc2c(c1)OCCCO2` (stereo not drawn) [Example 46, 3-Oxo-3H-isothiazolo[5,4-b]pyridine-2-carboxylic acid [1-(3,4-dihydro-2H-benzo[b][1,4]dioxepin-7-yl)-2-methyl-propyl]-amide]: 28 nM; for `CSc1ccc(CNC(=O)n2sc3ncccc3c2=O)cc1` [Example 55, 3-Oxo-3H-isothiazolo[5,4-b]pyridine-2-carboxylic acid 4-methylsulfanyl-benzylamide]: 116 nM.
On to `CSc1cccc(CNC(=O)n2sc3ncccc3c2=O)c1` [Example 59, 3-Oxo-3H-isothiazolo[5,4-b]pyridine-2-carboxylic acid 3-methylsulfanyl-benzylamide], for which the IC50 came to 264 nM.
The same measure for `COCCOc1ccc(CNC(=O)n2sc3ncccc3c2=O)cn1` [Example 114, 3-Oxo-3H-isothiazolo[5,4-b]pyridine-2-carboxylic acid [6-(2-methoxy-ethoxy)-pyridin-3-ylmethyl]-amide]: 216 nM; for `COc1cc(CNC(=O)n2sc3ncccc3c2=O)ccc1OCCN(C)C` [Example 115, 3-Oxo-3H-isothiazolo[5,4-b]pyridine-2-carboxylic acid 4-(2-dimethylamino-ethoxy)-3-methoxy-benzylamide]: 1380 nM; for `CC(C)Oc1ncccc1CNC(=O)n1sc2ncccc2c1=O` [Example 116, 3-Oxo-3H-isothiazolo[5,4-b]pyridine-2-carboxylic acid (2-isopropoxy-pyridin-3-ylmethyl)-amide]: 1590 nM.
As to `CCOc1ccc(CNC(=O)n2sc3ncccc3c2=O)cc1OC` [Example 129, 3-Oxo-3H-isothiazolo[5,4-b]pyridine-2-carboxylic acid 4-ethoxy-3-meth-oxy-benzylamide], the IC50 came out at 230 nM.
To `CN(C)Cc1ccc(CNC(=O)n2sc3ncccc3c2=O)cc1` [Example 130, 3-Oxo-3H-isothiazolo[5,4-b]pyridine-2-carboxylic acid 4-dimethylamino-methyl-benzylamide] belongs 85 nM.
To `CC(NC(=O)n1sc2ncccc2c1=O)c1ccc(N2CCOCC2)cc1` (stereo not drawn) [Example 134, 3-Oxo-3H-isothiazolo[5,4-b]pyridine-2-carboxylic acid [1-(4-morpholin-4-yl-phenyl)-ethyl]-amide] belongs 391 nM.
The same measure for `COCCN1CCC(CNC(=O)n2sc3ncccc3c2=O)CC1` [Example 142, 3-Oxo-3H-isothiazolo[5,4-b]pyridine-2-carboxylic acid [1-(2-methoxy-ethyl)-piperidin-4-ylmethyl]-amide]: 517 nM; for `Cc1ccccc1CNC(=O)n1sc2ncccc2c1=O` [Example 156, 3-Oxo-3H-isothiazolo(5,4-b]pyridine-2-carboxylic acid 2-methyl-benzyl-amide]: 1580 nM.
Take `COCCOc1ccc([C@@H](C)NC(=O)n2sc3ncccc3c2=O)cc1OC` [Example 161, 3-Oxo-3H-isothiazolo[5,4-b]pyridine-2-carboxylic acid {(R)-1-[3-methoxy-4-(2-methoxy-ethoxy)-phenyl]-ethyl}-amide]: the IC50 amounted to 80 nM.
